US8435962B2, “Triacetyl-3-hydroxyphenyladenosine and its use for regulating blood fat” (Institute of Mataria Medica, Chinese Academy of Medical …, priority 2009, dated 2013)
Where two headings read alike, the source gives them in different places.

Tests used:
hyperlipidemia rats [1] = experiment: Effects on plasma lipid in hyperlipidemia rats (high-fat diet); format: in vivo, rat; settings: for FFA / HDL-C / HDL/LDL / LDL-C / TC / TG: 4 weeks;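 as to all read-outs here: rats kept on high-fat chow for 4 weeks before dosing, serum taken from abdominal aorta after a 12 h fast at end of treatment, controls given vehicle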
Description: (§2) After a week of accommodation, except control group (20 rat), all the rats (120 rats) were fed with high-fat laboratory chow.
(§3) After four weeks high-fat diet modeling, rats were treated with different drugs by intragastric administration. Control animals received an equal volume of vehicle.
(§4) At the end of 4 weeks drug treatment, animals were fasted for 12 hours before anesthetizing by intraperitoneal injection of pentobarbitale sodium (45 mg/kg), and anticoagulated by 100 U/kg heparin through caudal vein injection. Blood samples were collected from the abdominal aorta within 15 min, and serum was separated. Serum TC, TG, HDL-C, LDL-C, ALT, FFA were detected. Liver and the fat pad behind the belly were separated and weighed, the liver and retroperitoneal fat were weighed too. […] The left rats (10 rats each group) drug treatment was withdrawn while high-fat diet modeling continued. Two weeks later, blood sample was collected from the orbit, and serum TC, TG were detected.

hyperlipidemia rats [2] = experiment: Effects on retroperitoneal fat weight of hyperlipidemic rats; format: in vivo, rat; settings: for Fat weight (retroperitoneal fat): hyperlipidemic rats, 4 weeks
Description: (§1) Control animals received an equal volume of vehicle.

hyperlipidemia rats [3] = experiment: Effects on hepatic SOD activity and MDA content of hyperlipidemia rats; format: in vivo, rat; settings: for hepatic MDA / hepatic SOD: 4 weeks
Description: as §1

hyperlipidemia rats [4] = experiment: Serum lipid of hyperlipidemia rats after withdrawal from drugs for 2 weeks; format: in vivo, rat; settings: for TC / TG: rats, 2 weeks after drug withdrawal, high-fat diet continued
Description: as §2, §3, §4

hyperlipidemia hamsters [5] = experiment: Effects on plasma lipid in hyperlipidemia hamsters (high-fat diet); format: in vivo, hamster; settings: for HDL-C / HDL/LDL / LDL-C / TC / TG: 4 weeks;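 as to all read-outs here: hamsters given high-fat chow for four weeks, then dosed by gavage, plasma lipids measured in abdominal aortic blood after a 12 h fast, compared with vehicle-treated controls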
Description: (§5) After a week of accommodation, except control group (n=12) all the hamsters (n=72) were fed with high-fat laboratory chow.
as §3
(§6) At the end of 4 weeks drug treatment, animals were fasted for 12 hours (10 of each group). The next day, they were anesthetized by intraperitoneal injection of pentobarbitale sodium (45 mg/kg). Blood samples were collected from the abdominal aorta within 15 min, and plasma was separated. Plasma TC, TG, HDL-C, LDL-C, ALT, FFA were detected. Liver and the retroperitoneal fat were separated and weighed, the liver and fat index were calculated. Liver SOD and MDA were detected by kit after homogenized. The left hamsters (10 each group) drug treatment was withdrawn while high-fat diet modeling continued. Two weeks later, blood sample was collected from the orbit and serum TC and TG were detected.

hyperlipidemia hamsters [6] = experiment: Effect on retroperitoneal fat of hyperlipidemia hamsters; format: in vivo, hamster
Description: as §5, §3, §6

hyperlipidemia hamsters [7] = experiment: Effects on hepatic SOD activity and MDA concentration in hyperlipidemic hamsters' livers; format: in vivo, hamster; settings: for hepatic MDA / hepatic SOD: 4 weeks
Description: as §5, §3, §6

hyperlipidemia hamsters [8] = experiment: Serum lipid level in hyperlipidemic hamsters after drug discontinuance (2 weeks); format: in vivo, hamster; settings: for TC / TG / serum lipid levels after drug discontinuance: hamsters; for TC / TG: 2 weeks after drug discontinuance, high-fat diet continued; for serum lipid levels after drug discontinuance: vs model group, in words
Description: as §5, §3, §6

hyperlipidemia rats [9] = experiment: Effects on liver weight and serum ALT activity of hyperlipidemia rats; settings: 4 weeks
Description: as §2, §3, §4

hyperlipidemia rats [10] = settings: rat, in vivo, 50 mg/kg
Description: as §2, §3, §4

hyperlipidemia hamsters [11] = settings: hamster, in vivo, 50 mg/kg
Description: as §5, §3, §6

hyperlipidemia hamsters [12] = experiment: Effects on serum ALT activity in hyperlipidemic hamsters; settings: for ALT: hyperlipidemic hamsters, 4 weeks
Description: as §5, §3, §6

[13] = hyperlipidemia rats, 3 mg/kg intragastric
[14] = hyperlipidemia rats, 6 mg/kg intragastric
[15] = hyperlipidemia rats, 12 mg/kg intragastric

## CCC(C)(C)C(=O)O[C@H]1C[C@@H](C)C=C2C=C[C@H](C)[C@H](CC[C@@H]3C[C@@H](O)CC(=O)O3)[C@H]21 [Simvastatin, reference compound]
Hyperlipidemia rats [1]; 2 mg/kg intragastric
  FFA: 0.96 ± 0.39 mmol/L
  HDL-C: 0.59 ± 0.13 mmol/L
  HDL/LDL: 0.50 ± 0.16
  LDL-C: 1.24 ± 0.24 mmol/L
  TC: 2.22 ± 0.36 mmol/L
  TG: 0.76 ± 0.21 mmol/L
Hyperlipidemia rats [2]; 2 mg/kg intragastric
  Fat weight (retroperitoneal fat): 0.70 ± 0.28 g/100 g body weight
Hyperlipidemia rats [3]; 2 mg/kg intragastric
  hepatic MDA: 9.29 ± 2.73 nmol/mg protein
  hepatic SOD: 99.5 ± 20.2 U/g pr
Hyperlipidemia rats [4]; 2 mg/kg
  TC: 2.14 ± 0.33 mmol/L
  TG: 0.94 ± 0.24 mmol/L
Hyperlipidemia hamsters [5]; 2 mg/kg intragastric
  HDL-C: 1.12 ± 0.21 mmol/L
  HDL/LDL: 0.45 ± 0.12
  LDL-C: 2.57 ± 0.53 mmol/L
  TC: 4.46 ± 1.63 mmol/L
  TG: 3.20 ± 1.70 mmol/L
Hyperlipidemia hamsters [6]; 2 mg/kg intragastric, 4 weeks
  retroperitoneal fat: 0.97 ± 0.19 g/100g
Hyperlipidemia hamsters [7]; 2 mg/kg intragastric
  hepatic MDA: 4.48 ± 0.96 nmol/mg protein
  hepatic SOD: 94.6 ± 38.0 U/g pr
Hyperlipidemia hamsters [8]; 2 mg/kg
  TC: 4.91 ± 1.18 mmol/L
  TG: 4.58 ± 1.01 mmol/L
Hyperlipidemia rats [9]; 'rat' in hamster Table 9, 2 mg/kg intragastric
  Liver weight: 3.96 ± 0.93 g/100 g body weight
Hyperlipidemia rats [9]; hyperlipidemia rats, 2 mg/kg intragastric
  Liver weight: 3.96 ± 0.93 g/100 g body weight

## CC(C)OC(=O)C(C)(C)Oc1ccc(C(=O)c2ccc(Cl)cc2)cc1 [Fenofibrate, reference compound]
Hyperlipidemia rats [1]; 50 mg/kg intragastric
  FFA: 1.13 ± 0.30 mmol/L
  HDL-C: 0.59 ± 0.17 mmol/L
  HDL/LDL: 0.53 ± 0.16
  LDL-C: 1.16 ± 0.28 mmol/L
  TC: 2.23 ± 0.53 mmol/L
  TG: 0.70 ± 0.19 mmol/L
Hyperlipidemia rats [2]; 50 mg/kg intragastric
  Fat weight (retroperitoneal fat): 0.68 ± 0.16 g/100 g body weight
Hyperlipidemia rats [3]; 50 mg/kg intragastric
  hepatic MDA: 9.35 ± 2.4 nmol/mg protein
  hepatic SOD: 103.6 ± 27.9 U/g pr
Hyperlipidemia rats [4]; 50 mg/kg
  TC: 2.08 ± 0.49 mmol/L
  TG: 1.03 ± 0.19 mmol/L
Hyperlipidemia hamsters [5]; 50 mg/kg intragastric
  HDL-C: 1.48 ± 0.40 mmol/L
  HDL/LDL: 0.50 ± 0.13
  LDL-C: 3.04 ± 0.82 mmol/L
  TC: 4.76 ± 1.58 mmol/L
  TG: 3.80 ± 1.04 mmol/L
Hyperlipidemia hamsters [7]; 50 mg/kg intragastric
  hepatic SOD: 94.0 ± 16.3 U/g pr
Hyperlipidemia hamsters [8]; 50 mg/kg
  TC: 5.29 ± 2.13 mmol/L
  TG: 4.16 ± 0.86 mmol/L
Hyperlipidemia rats [10]
  serum ALT: 40.3 ± 18.0 U/L
Hyperlipidemia hamsters [11]
  ALT: 97.3 ± 37.8 U/L
Hyperlipidemia rats [9]; 'rat' in hamster Table 9, 50 mg/kg intragastric
  Liver weight: 4.08 ± 0.36 g/100 g body weight
Hyperlipidemia rats [9]; hyperlipidemia rats, 50 mg/kg intragastric
  Liver weight: 4.08 ± 0.36 g/100 g body weight

## CC(=O)OC[C@H]1O[C@@H](n2cnc3c(Nc4cccc(O)c4)ncnc32)[C@H](OC(C)=O)[C@@H]1OC(C)=O [WS070117, O^2′,O^3′,O^5′-tri-acetyl-N^6-(3-hydroxylphenyl)adenosine]
Hyperlipidemia rats [1]; 3 mg/kg intragastric
  FFA: 1.04 ± 0.24 mmol/L
  HDL-C: 0.58 ± 0.10 mmol/L
  HDL/LDL: 0.43 ± 0.12
  LDL-C: 1.38 ± 0.27 mmol/L
  TC: 2.39 ± 0.34 mmol/L
  TG: 0.67 ± 0.15 mmol/L
Hyperlipidemia rats [1]; 6 mg/kg intragastric
  FFA: 0.94 ± 0.17 mmol/L
  HDL-C: 0.59 ± 0.18 mmol/L
  HDL/LDL: 0.52 ± 0.19
  LDL-C: 1.19 ± 0.18 mmol/L
  TC: 2.11 ± 0.24 mmol/L
  TG: 0.52 ± 0.13 mmol/L
Hyperlipidemia rats [1]; 6 mg/kg, in words
  effect on rats FFA: significant effect
Hyperlipidemia rats [1]; 12 mg/kg intragastric
  FFA: 0.97 ± 0.27 mmol/L
  HDL-C: 0.56 ± 0.10 mmol/L
  HDL/LDL: 0.47 ± 0.13
  LDL-C: 1.24 ± 0.20 mmol/L
  TC: 2.30 ± 0.29 mmol/L
  TG: 0.55 ± 0.19 mmol/L
Hyperlipidemia rats [1]; after treatment, in words
  HDL-C/LDL-C: increased
  blood TC, TG and LDL-C: decreased
Hyperlipidemia rats [2]; hyperlipidemia rats, after administration, in words
  weight of rats' retroperitoneal fat: obviously decreased
Hyperlipidemia rats [2]; 3 mg/kg intragastric
  Fat weight (retroperitoneal fat): 0.67 ± 0.33 g/100 g body weight
Hyperlipidemia rats [2]; 6 mg/kg intragastric
  Fat weight (retroperitoneal fat): 0.67 ± 0.12 g/100 g body weight
Hyperlipidemia rats [2]; 12 mg/kg intragastric
  Fat weight (retroperitoneal fat): 0.64 ± 0.22 g/100 g body weight
Hyperlipidemia rats [3]; 3 mg/kg intragastric
  hepatic MDA: 8.51 ± 3.32 nmol/mg protein
  hepatic SOD: 93.3 ± 37.5 U/g pr
Hyperlipidemia rats [3]; 6 mg/kg intragastric
  hepatic MDA: 8.71 ± 2.83 nmol/mg protein
  hepatic SOD: 102.0 ± 24.4 U/g pr
Hyperlipidemia rats [3]; 12 mg/kg intragastric
  hepatic MDA: 8.29 ± 2.78 nmol/mg protein
  hepatic SOD: 107.7 ± 26.4 U/g pr
Hyperlipidemia rats [3]; after administration, in words
  hepatic SOD activity: significantly increased
Hyperlipidemia rats [3]; in words
  hepatic MDA content: decreased
Hyperlipidemia rats [4]; hyperlipidemia rats
  time blood-fat regulatory effect is sustained after withdrawal: more than 2 weeks
Hyperlipidemia rats [4]; hyperlipidemia rats, in words
  serum TC content after withdrawal from drugs for 2 weeks: significantly lower than that of the model group
Hyperlipidemia rats [4]; 3 mg/kg
  TC: 2.12 ± 0.45 mmol/L
  TG: 1.04 ± 0.19 mmol/L
Hyperlipidemia rats [4]; 6 mg/kg
  TC: 2.02 ± 0.43 mmol/L
  TG: 1.03 ± 0.22 mmol/L
Hyperlipidemia rats [4]; 12 mg/kg
  TC: 2.15 ± 0.32 mmol/L
  TG: 1.01 ± 0.38 mmol/L
Hyperlipidemia hamsters [5]; 3 mg/kg intragastric
  HDL-C: 1.24 ± 0.26 mmol/L
  HDL/LDL: 0.37 ± 0.11
  LDL-C: 3.68 ± 1.44 mmol/L
  TC: 4.35 ± 0.93 mmol/L
  TG: 4.26 ± 1.52 mmol/L
Hyperlipidemia hamsters [5]; 6 mg/kg intragastric
  HDL-C: 1.14 ± 0.18 mmol/L
  HDL/LDL: 0.40 ± 0.09
  LDL-C: 3.00 ± 0.90 mmol/L
  TC: 4.19 ± 1.14 mmol/L
  TG: 3.67 ± 1.46 mmol/L
Hyperlipidemia hamsters [5]; 12 mg/kg intragastric
  HDL-C: 1.24 ± 0.40 mmol/L
  HDL/LDL: 0.59 ± 0.31
  LDL-C: 2.26 ± 0.47 mmol/L
  TC: 3.60 ± 1.84 mmol/L
  TG: 3.44 ± 1.29 mmol/L
Hyperlipidemia hamsters [5]; after treatment, in words
  blood TC, TG and LDL-C: decreased
  rate HDL-C/LDL-C: increased
Hyperlipidemia hamsters [6]; 3 mg/kg intragastric, 4 weeks
  retroperitoneal fat: 1.26 ± 0.34 g/100g
Hyperlipidemia hamsters [6]; 6 mg/kg intragastric, 4 weeks
  retroperitoneal fat: 1.23 ± 0.23 g/100g
Hyperlipidemia hamsters [6]; 12 mg/kg intragastric, 4 weeks
  retroperitoneal fat: 1.31 ± 0.27 g/100g
Hyperlipidemia hamsters [6]; after treatment, in words
  retroperitoneal fat: decreased
Hyperlipidemia hamsters [7]; 3 mg/kg intragastric
  hepatic MDA: 4.8 ± 1.2 nmol/mg protein
  hepatic SOD: 84.0 ± 19.6 U/g pr
Hyperlipidemia hamsters [7]; 6 mg/kg intragastric
  hepatic MDA: 4.23 ± 0.72 nmol/mg protein
  hepatic SOD: 95.1 ± 31.6 U/g pr
Hyperlipidemia hamsters [7]; 12 mg/kg intragastric
  hepatic MDA: 4.6 ± 0.92 nmol/mg protein
  hepatic SOD: 91.9 ± 22.9 U/g pr
Hyperlipidemia hamsters [7]; in words
  MDA concentration: lower than the model group
Hyperlipidemia hamsters [8]; 3 mg/kg
  TC: 5.34 ± 1.32 mmol/L
  TG: 4.36 ± 1.27 mmol/L
Hyperlipidemia hamsters [8]; 6 mg/kg
  serum lipid levels after drug discontinuance: significantly lower
  TC: 5.02 ± 1.35 mmol/L
  TG: 4.16 ± 0.77 mmol/L
Hyperlipidemia hamsters [8]; 12 mg/kg
  serum lipid levels after drug discontinuance: significantly lower
  TC: 4.61 ± 1.11 mmol/L
  TG: 3.82 ± 0.66 mmol/L
Hyperlipidemia hamsters [8]; hyperlipidemic hamsters
  time hypolipidemic effect lasted after drug discontinuance: ≥ 2 weeks
Hyperlipidemia hamsters [12]; 3 mg/kg intragastric
  ALT: 100.7 ± 38.2 U/L
Hyperlipidemia hamsters [12]; 6 mg/kg intragastric
  ALT: 91.7 ± 23.1 U/L
Hyperlipidemia hamsters [12]; 12 mg/kg intragastric
  ALT: 95.2 ± 34.8 U/L
Hyperlipidemia hamsters [12]; text of hamster Example 3 says 'hyperlipidemic rats', in words
  serum ALT activity: slightly reduced
Hyperlipidemia rats [9]; 'rat' in hamster Table 9, 3 mg/kg intragastric
  Liver weight: 3.22 ± 0.48 g/100 g body weight
Hyperlipidemia rats [9]; 'rat' in hamster Table 9, 6 mg/kg intragastric
  Liver weight: 3.21 ± 0.38 g/100 g body weight
Hyperlipidemia rats [9]; 'rat' in hamster Table 9, 12 mg/kg intragastric
  Liver weight: 3.26 ± 0.54 g/100 g body weight
Hyperlipidemia rats [9]; [13]
  Liver weight: 3.22 ± 0.48 g/100 g body weight
  serum ALT: 42.9 ± 13.7 U/L
Hyperlipidemia rats [9]; [14]
  Liver weight: 3.21 ± 0.38 g/100 g body weight
  serum ALT: 41.6 ± 19.8 U/L
Hyperlipidemia rats [9]; [15]
  Liver weight: 3.26 ± 0.54 g/100 g body weight
  serum ALT: 42.0 ± 16.6 U/L
